According to BindingDB's records for doi:10.1016/j.bioorg.2015.10.007 (University of Thessaly, 2015):

Assays:
Ribonuclease pancreatic = Ribonuclease pancreatic (Bos taurus, UniProt P61823); assay: Ribonuclease Activity Assay; conditions: 30 °C
Experimental: (§1) The Ribonuclease Activity assay used was adapted from the procedure described by Anfinsen et al. and Slifman et al. Determination of ribonuclease activity of RNase A and EDN proceeded as follows: yeast tRNA (Sigma-Aldrich) was solubilized in 50 mM sodium phosphate, pH = 7.4, at a concentration of 60 uM. Various tRNA concentrations were used: 2 uM, 3 uM, 4 uM, 5 uM and 6 uM. The final volume of the reaction was 300 ul. tRNA solutions were incubated at 30 C for 10 min. 10 nM of enzyme final concentration from a 0.6 uM stock solution added to the reactionmixture. The reaction was stopped one minute and five minutes later in the case of RNase A and EDN respectively, by the addition of 300 ul of fresh ice-cold solution of 40 mM lanthanum nitrate, 6% v/v perchloric acid. Stopped reactions were maintained on ice for 15 min, and insoluble tRNA was removed by centrifugation at 4 C for 15 min at 14.500 rpm on a bench centrifuge. The amountof cleaved tRNA was determined from the ultraviolet absorbance at 260 nm (A260) of the supernatant fraction.

[1] = target: T1, Non-secretory ribonuclease (Homo sapiens, UniProt P10153); assay: Ribonuclease Activity Assay; conditions: 30 °C
T1 sequence (P10153 whole entry): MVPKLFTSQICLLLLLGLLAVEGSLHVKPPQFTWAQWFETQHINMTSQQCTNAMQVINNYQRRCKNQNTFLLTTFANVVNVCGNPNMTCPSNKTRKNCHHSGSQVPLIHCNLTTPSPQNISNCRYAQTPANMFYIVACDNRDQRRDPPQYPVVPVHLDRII
Experimental: as §1

Sequence of Ribonuclease pancreatic (P61823 whole entry): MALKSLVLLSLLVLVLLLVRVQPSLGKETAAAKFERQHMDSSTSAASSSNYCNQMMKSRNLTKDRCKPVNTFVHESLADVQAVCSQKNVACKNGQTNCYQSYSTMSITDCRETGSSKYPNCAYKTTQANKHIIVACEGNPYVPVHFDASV

| Ki (Ribonuclease pancreatic) [µM] | IC50 [1] [µM] | Ki [1] [µM] | Compound |
| --- | --- | --- | --- |
| 265 |  |  | Nc1ncnc2c1ncn2Cc1cn([C@@H]2C(O)[C@H](n3cc(F)c(=O)[nH]c3=O)O[C@@H]2CO)nn1 (stereo partly drawn) [1-[3'-[4-[(Adenine-9-yl)methyl]-1,2,3-triazol-1-yl]-b-D-ribofuranosyl]5-fluorouracil (5c)] |
| 150 | 379 | 247 | Cc1cn(Cc2cn([C@@H]3C(O)[C@H](n4cnc5c(NC(=O)c6ccccc6)ncnc54)O[C@@H]3CO)nn2)c(=O)[nH]c1=O (stereo partly drawn) [9-[3'-[4-[(Thymine-1-yl)methyl]-1,2,3-triazol-1-yl]-b-D-ribofuranosyl]N6-benzoyladenine (11b)] |
|  | 33.1 | 26.1 | Cc1cn([C@@H]2O[C@H](CO)[C@H](O)C2O)c(=O)[nH]c1=O (stereo partly drawn) [1-[(2R,5R)-3,4-dihydroxy-5-(hydroxymethyl)oxolan-2-yl]-5-methyl-1,2,3,4-tetrahydropyrimidine-2,4-dione (IV)] |
| 55.5 | 409 | 267 | O=C(Nc1ncnc2c1ncn2[C@@H]1O[C@H](CO)[C@H](n2cc(Cn3ccc(=O)[nH]c3=O)nn2)C1O)c1ccccc1 (stereo partly drawn) [9-[3'-[4-[(Uracil-1-yl)methyl]-1,2,3-triazol-1-yl]-b-D-ribofuranosyl]N6-benzoyladenine (11a)] |
| 159 |  |  | Nc1ncnc2c1ncn2Cc1cn([C@@H]2C(O)[C@H](n3ccc(=O)[nH]c3=O)O[C@@H]2CO)nn1 (stereo partly drawn) [1-[3'-[4-[(Adenine-9-yl)methyl]-1,2,3-triazol-1-yl]-b-D-ribofuranosyl]uracil (5a)] |
|  | 179 | 116 | O=c1ccn(Cc2cn([C@@H]3O[C@H](CO)[C@H](O)C3O)nn2)c(=O)[nH]1 (stereo partly drawn) [1-({1-[(2R,5R)-3,4-dihydroxy-5-(hydroxymethyl)oxolan-2-yl]-1H-1,2,3-triazol-4-yl}methyl)-1,2,3,4-tetrahydropyrimidine-2,4-dione (I)] |
| 98.5 | 88.6 | 57.8 | NC1=NC=NC2C1N=CN2[C@@H]1O[C@H](CO)[C@H](n2cc(Cn3ccc(N)nc3=O)nn2)C1O (stereo partly drawn) [9-[3'-[4-[(Cytosine-1-yl)methyl]-1,2,3-triazol-1-yl]-b-D-ribofuranosyl]adenine (11c)] |
| 106 | 652 | 426 | NC1=NC=NC2C1N=CN2[C@@H]1O[C@H](CO)[C@H](n2cc(Cn3ccc(=O)[nH]c3=O)nn2)C1O (stereo partly drawn) [9-[3'-[4-[(Uracil-1-yl)methyl]-1,2,3-triazol-1-yl]-b-D-ribofuranosyl]adenine (12a)] |
|  | 535 | 454 | O=c1[nH]c(=O)n(Cc2cn([C@@H]3O[C@H](CO)[C@H](O)C3O)nn2)cc1Cl (stereo partly drawn) [5-chloro-1-({1-[(2R,5R)-3,4-dihydroxy-5-(hydroxymethyl)oxolan-2-yl]-1H-1,2,3-triazol-4-yl}methyl)-1,2,3,4-tetrahydropyrimidine-2,4-dione (II)] |
|  | 63.7 | 44.2 | O=c1[nH]c(=O)n(Cc2cn([C@@H]3O[C@H](CO)[C@H](O)C3O)nn2)cc1F (stereo partly drawn) [1-({1-[(2R,5R)-3,4-dihydroxy-5-(hydroxymethyl)oxolan-2-yl]-1H-1,2,3-triazol-4-yl}methyl)-5-fluoro-1,2,3,4-tetrahydropyrimidine-2,4-dione (III)] |
|  | 1460 | 1080 | O=c1[nH]c(=O)n([C@@H]2O[C@H](CO)[C@H](O)C2O)cc1Cl (stereo partly drawn) [5-chloro-1-[(2R,5R)-3,4-dihydroxy-5-(hydroxymethyl)oxolan-2-yl]-1,2,3,4-tetrahydropyrimidine-2,4-dione (V)] |
| 68.8 | 559 | 365 | Cc1cn(Cc2cn([C@@H]3C(O)[C@H](N4C=NC5C(N)=NC=NC54)O[C@@H]3CO)nn2)c(=O)[nH]c1=O (stereo partly drawn) [9-[3'-[4-[(Thymine-1-yl)methyl]-1,2,3-triazol-1-yl]-b-D-ribofuranosyl]adenine (12b)] |

| Compound | Ki (Ribonuclease pancreatic) [µM] | IC50 [1] [µM] | Ki [1] [µM] |
| --- | --- | --- | --- |
| O=c1[nH]c(=O)n([C@@H]2O[C@H](CO)[C@H](O)C2O)cc1F (stereo partly drawn) [1-[(2R,5R)-3,4-dihydroxy-5-(hydroxymethyl)oxolan-2-yl]-5-fluoro-1,2,3,4-tetrahydropyrimidine-2,4-dione (VI)] |  | 282 | 208 |
